In patent US20250127167A1, “ANTIMICROBIAL PEPTIDES” (priority 2021, published 2025):
“Also recorded” adds a separate entry of the source. Where two headings read alike, the source gives them in different places. Where a SMILES comes first, the peptide text is derived from it. [ ]: non-standard residue; d: D form. Phe(4-F) = N[C@@H](Cc1ccc(F)cc1)C(=O)O; Dopa = N[C@@H](Cc1ccc(O)c(O)c1)C(=O)O

Experiments:
T4 bacteriophage [1] = test system: T4 bacteriophage
Description: All the tripeptide powders were firstly dissolved into ethanol and diluted by TDW. The solutions were stirring for 3 h (150 rpm, room temperature) for complete self-assembly. The final concentration is 10 mg/mL. […] As a control, single amino acids (L-DOPA, L-Phenylalanine, and 4-Fluoro-L-phenylalanine) were also used to examine their antiviral activity. To further evaluate the antiviral activity for the peptide assemblies, the antiviral MIC for traditional Ag and Cu nanoparticles were also tested. The stock solutions were two-fold diluted using LB phage to obtain a series of peptide concentrations until the lowest concentration needed was achieved. Next, the 100 μL T4 bacteriophage (10^5 PFU/mL) and 100 μL diluted peptide solutions were transferred into 800 μL LB phage and then the samples were shaken at 150 rpm at room temperature. After 24 h incubation, the samples were centrifuged at 14000 g for 10 min to precipitate the peptide particles. Supernatants were collected and then 10-fold diluted once. Then, the 20 μL supernatants were mixed with 25 μL bacteria (E. coli. ATCC11303) in 1 mL warm 0.6% agarose. Then the mixture was spread out on 1.5% LB agar to form a double agar layer. The plate was incubated at 37° C. for 18 h to form the plaques. The lowest concentration of peptides that prevented virus growth is defined as the antiviral minimum inhibitory concentration (MIC).
A series of two-fold diluted peptide solutions (1000, 500, 250, 125, 62.5, 31.25, 15.625, and 7.8125 µg/mL) was prepared to measure the antiviral MIC. Next, 100 μL T4 bacteriophage (10^5 PFU/mL) and 100 μL diluted peptide solutions were transferred into 800 μL LB phage; then, the samples were shaken at 150 rpm at room temperature. After 24 h incubation, the samples were centrifuged at 14000×g for 10 min to precipitate the peptide particles. Supernatants were collected and then 10-fold diluted once. Next, the 20 μL supernatants were mixed with 25 μL bacteria (E. coli. ATCC11303) in 1 mL of warm 0.6% agarose. Then, the mixture was spread out on 1.5% LB agar to form a double agar layer. The plate was incubated at 37° C. for 18 h to form plaques. The lowest concentration of peptides that prevented virus growth is defined as the antiviral minimum inhibitory concentration (MIC). L-DOPA, L-phenylalanine, L-Phe(4F), Phe(4F)-Phe(4F), and diphenylalanine were used as controls.

T4 bacteriophage [2] = test: Antiviral activity for coatings against T4 bacteriophage (bacteriophage plaque assay); format: cell-based, Escherichia coli bacteriophage T4; settings: for virus titer of bacteriophage T4 on dipeptide coatings: 10 mg/mL drop-casted three times, bare glass 29000±2000 PFU/mL; for virus titer of bacteriophage T4 on dipeptide coatings / viral titer of T4 bacteriophage / virus titer of T4 bacteriophage: 24 h; for reduction of the viral titer by dipeptide coatings: versus bare glass; for virus titer of T4 bacteriophage: 3-layer coating on glass, bare glass 13579±2839
Description: The antiviral activity performance was measured according to work by Kim et al. and Matsumoto et al. with some modification. The peptide coatings were prepared as described before. We used T4 bacteriophage as the virus when we measured the antiviral activity. Bacteriophage suspension was propagated on E. coli (ATCC 11303) according to ISO 18061, which was grown as the host strain. The mixture obtained by adding 100 μL of fresh T4 phage to an overnight culture of E. coli was incubated for 4 h in a 10 mL LB phage at 37° C. After multiplication, the virus was collected by centrifugation at 4000×g for 10 min at room temperature. The concentration of T4 bacteriophage was measured using the soft agar overlay (double-agar layer) plaque assay method. The supernatant containing the bacteriophage culture was filtrated through cellulose acetate filters (Millipore Acrodisc; the pore sizes were 0.45 μm and 0.22 μm) before use (the final concentration of bacteriophage was 10^9 PFU/mL).
Ten decimal serial dilutions of the virus suspension were prepared by LB phage. The aqueous suspensions for the E. coli and T4 bacteriophage inactivation experiments contained sample surfaces having dimensions of 1*1 cm and T4 phage at 1.0×10^6 plaque-forming units (PFU)/mL. As a positive control, we also added 16 μL 1.0×10^6 plaque-forming units (PFU)/mL bacteriophage T4 on bare glass and then treated the surface by a UV irradiation (long wave ultraviolet 365 nm) for 3 h. Next, the phages were incubated under humid conditions at room temperature (25° C.) in a dark room for 24 h. After incubation, the phages were harvested by shaking with 2 mL SCDLP broth for 15 min to stop the incubation. The T4 in SCDLP bacteriophage was diluted with LB phage 10-fold. Subsequently, samples and bacteria were mixed with 0.6% agarose. Then the mixture was spread out on 1.5% LB agar to form a double agar layer. The plate was incubated at 37° C. for 18 h to form the plaques. The antiviral activity was defined and calculated as eq 2 below: The initial virus titer (No) and the virus titer after incubation (N) were calculated by counting the plaque number. For each sample, 9 repeats were performed to assess the antiviral activity.
The antiviral activity performance was measured according to our previous work. Briefly, 10 decimal serial dilutions of the virus suspension were prepared by LB phage. The aqueous suspensions for the E. coli and T4 bacteriophage inactivation experiments contained sample surfaces with dimensions of 1*1 cm and T4 phage at 1.0×106 plaque-forming units (PFU)/mL. Next, the phages were incubated under humid conditions at room temperature (25° C.) in a dark room for 24 h. After incubation, the phages were harvested by shaking them with 2 mL SCDLP broth for 15 min to stop the incubation. The T4 in the SCDLP bacteriophage was diluted with LB phage 10-fold. Subsequently, samples and bacteria were mixed with 0.6% agarose. Then, the mixture was spread out on 1.5% LB agar to form a double agar layer. The plate was incubated at 37° C. for 18 h to form the plaques. The antiviral activity was defined and calculated as follows: The initial virus titer (NO) and the virus titer after incubation (N) were calculated by counting the plaque number. For each sample, 9 repeats were performed to assess the antiviral activity.

Canine coronavirus (CCV) = format: cell-based; settings: for log (TCID50/mL) of CCV: 3-layer coating, 3 h incubation, uncoated glass 4.77±0.12; for effect on CCV (in words): 3-layer coatings / controls
[3] = Stability of peptide coatings (XPS after immersing or washing); format: physicochemical; settings: 3-layer coating
Description: X-ray photoelectron spectroscopy (XPS) analyses were performed by using an AXIS Ultra X-ray photoelectron spectrometer (Kratos Analytical, Ltd., Manchester, UK). The sample's take-off angle was 90°. The vacuum pressure in the analyzing chamber was maintained at 2×10^−9 Torr. High-resolution XPS spectra were collected for F is, O is, C is, and N is peaks with 20 eV pass energy and 0.1 eV step size. Data analyses were carried out using Kratos Vision data reducing processing software (Kratos Analytical, Ltd.) and Casa XPS (Casa Software, Ltd.).
(§1) To examine the coating stabilities, peptide coatings were immersed into TDW for 5 min or washed with 2 mL TDW three times and then dried at room temperature. X-ray photoelectron spectroscopy (XPS) analyses were performed for the immersed and washed coatings. Moreover, peptide coatings were wiped with a finger at a load of 1 g and then water contact angle measurements were performed using the same method as described in the Contact angle measurements section.

[4] = Water contact angle measurements of coated glass; format: physicochemical; settings: for water contact angle after wiping: 3-layer coating, wiped at a load of 1 g
Description: Contact angle measurements were examined by using a Theta Lite optical tensiometer (Attension, Finland). Each experimental measurement consisted of three repeats.
as §1

fruit and plant viruses = test: Antiviral activity against fruit viruses
Description: The potential antiviral activity of DOPA-Phe(Br)—OH against fruit viruses and other microbial sources was also investigated.

[5] = Table 1, tripeptide assemblies, single amino acids and metal nanoparticles, 24 h incubation

NC(=O)[C@H](Cc1ccc(F)cc1)NC(=O)[C@@H](N)Cc1ccc(O)c(O)c1 [DOPA-Phe(4F)-NH2] (H-[Dopa]-[Phe(4-F)]-NH2)
antiviral activity against T4 bacteriophage (in words) (T4 bacteriophage [1]; in solution): exhibited antiviral activity | Antiviral MIC (T4 bacteriophage [1]; in solution, T4 bacteriophage): 62.5 µg/mL | virus titer of bacteriophage T4 on dipeptide coatings (T4 bacteriophage [2]): no viruses were detected | reduction of the viral titer by dipeptide coatings (T4 bacteriophage [2]): ~4 logs

COC(=O)[C@H](Cc1ccc(F)cc1)NC(=O)[C@H](Cc1ccc(F)cc1)NC(=O)[C@@H](N)Cc1ccc(O)c(O)c1 [DOPA-Phe(4F)-Phe(4F)-OMe] (H-[Dopa]-[Phe(4-F)]-[Phe(4-F)]-OMe; N-terminus assumed)
Antiviral MIC (T4 bacteriophage [1]; [5]): 31 µg/mL | log (TCID50/mL) of CCV (Canine coronavirus (CCV)): below the detection limit | XPS signals after immersing in TDW for 5 min or washing three times [3]: did not decrease | reduction of viral titer compared with bare glass (T4 bacteriophage [2]; 1 layer coating): 79% | reduction rate (log (N/No)) of virus titers (T4 bacteriophage [2]; 1 layer coating): −0.7 | viral titer of T4 bacteriophage (T4 bacteriophage [2]; 1 layer coating on glass): 2610±369 PFU/mL | reduction of viral titer compared with bare glass (T4 bacteriophage [2]; 2 layers coating): 91% | reduction rate (log (N/No)) of virus titers (T4 bacteriophage [2]; 2 layers coating): −1.1 | viral titer of T4 bacteriophage (T4 bacteriophage [2]; 2 layers coating on glass): 1111±201 PFU/mL | reduction of virus titers compared to the glass surfaces (T4 bacteriophage [2]; 3-layer coating): 3 log | reduction of virus titers compared to the stock solution (T4 bacteriophage [2]; 3-layer coating): 6 log | virus titer of T4 bacteriophage (T4 bacteriophage [2]): 3±6 PFU/mL | reduction of viral titer compared with bare glass (T4 bacteriophage [2]; 3 layer coating): 99.9% | reduction rate (log (N/No)) of virus titers (T4 bacteriophage [2]; 3 layers coating): −3.7 | water contact angle ([4]; 1 layer on glass, bare glass 12±2°): 23±2 ° | water contact angle ([4]; 2 layers on glass): 34±2 ° | water contact angle after wiping [4]: 33±1 ° | water contact angle ([4]; 3 layers on glass): 38±4 °

NC(=O)[C@H](Cc1ccccc1)NC(=O)[C@@H](N)Cc1ccc(O)c(O)c1 [DOPA-Phe-NH2] (H-[Dopa]-Phe-NH2; N-terminus assumed)
Antiviral MIC (T4 bacteriophage [1]; 24 h): 125.00 µg/mL | antiviral activity against T4 bacteriophage (in words) (T4 bacteriophage [1]; in solution): exhibited antiviral activity | Antiviral MIC (T4 bacteriophage [1]; in solution, T4 bacteriophage): 125 µg/mL | virus titer of bacteriophage T4 on dipeptide coatings (T4 bacteriophage [2]): no viruses were detected | reduction of the viral titer by dipeptide coatings (T4 bacteriophage [2]): ~4 logs

COC(=O)[C@H](Cc1ccccc1)NC(=O)[C@H](Cc1ccccc1)NC(=O)[C@@H](N)Cc1ccc(O)c(O)c1 [DOPA-Phe-Phe-OMe] (H-[Dopa]-Phe-Phe-OMe; N-terminus assumed)
Antiviral MIC (T4 bacteriophage [1]; [5]): 62 µg/mL | log (TCID50/mL) of CCV (Canine coronavirus (CCV)): below the detection limit | XPS signals after immersing in TDW for 5 min or washing three times [3]: did not change appreciably | reduction of virus titers compared to the glass surfaces (T4 bacteriophage [2]; 3-layer coating): 0.2 log | virus titer of T4 bacteriophage (T4 bacteriophage [2]): 8029±205 PFU/mL | reduction rate (log (N/No)) of virus titers (T4 bacteriophage [2]; 3 layers coating): −0.2 | water contact angle after wiping [4]: 25±2 ° | water contact angle ([4]; 3 layers on glass): 29±1 °

N[C@@H](Cc1ccc(O)c(O)c1)C(=O)O [L-DOPA, 3,4-dihydroxy-L-phenylalanine]
antiviral activity against T4 bacteriophage (in words) (T4 bacteriophage [1]; in solution, listed as DOPA): did not show any antiviral activity | log (TCID50/mL) of CCV (Canine coronavirus (CCV)): 4.37±0.31 log (TCID50/mL) | effect on CCV (in words) (Canine coronavirus (CCV)): do not appreciably affect the viability of CCV | effect on CCV (in words) (Canine coronavirus (CCV); listed as DOPA): did not show any antiviral activity | antiviral activity of drop-casted controls against T4 bacteriophage (in words) (T4 bacteriophage [2]; drop-casted three times / deposited on glass, compared to a glass surface): did not decrease the viral titers

N[C@@H](Cc1ccc(F)cc1)C(=O)O [L-Phe(4F), 4-Fluoro-L-phenylalanine]
antiviral activity against T4 bacteriophage (in words) (T4 bacteriophage [1]; in solution): did not decrease the viral titer | antiviral activity against T4 bacteriophage (in words) (T4 bacteriophage [1]; in solution, listed as 4-Fluoro-L-phenylalanine): no antiviral activity

N[C@@H](Cc1ccccc1)C(=O)O [L-Phe, L-phenylalanine]
antiviral activity against T4 bacteriophage (in words) (T4 bacteriophage [1]; in solution, listed as L-Phenylalanine): no antiviral activity | effect on CCV (in words) (Canine coronavirus (CCV)): did not show any antiviral activity

DOPA-Phe(Br)—NH2
eradication of fruit and plant viruses (fruit and plant viruses): capable of eradicating fruit and plant viruses

DOPA-Phe(Br)—OH
eradication of fruit and plant viruses (fruit and plant viruses): capable of eradicating fruit and plant viruses

H-Phe-Phe-OH [Diphenylalanine]
antiviral activity against T4 bacteriophage (in words) (T4 bacteriophage [1]; in solution, listed as Phe-Phe): did not decrease the viral titer | antiviral activity against T4 bacteriophage (in words) (T4 bacteriophage [1]; in solution, listed as diphenylalanine): did not show any antiviral activity | log (TCID50/mL) of CCV (Canine coronavirus (CCV)): 4.67±0.42 log (TCID50/mL) | effect on CCV (in words) (Canine coronavirus (CCV)): do not appreciably affect the viability of CCV; also recorded: did not show any antiviral activity | antiviral activity of drop-casted controls against T4 bacteriophage (in words) (T4 bacteriophage [2]): did not decrease the viral titers; also recorded: did not exhibit antiviral activity

Phe(4F)-Phe(4F)—OMe [Phe(4F)-Phe(4F)-Ome]
antiviral activity against T4 bacteriophage (in words) (T4 bacteriophage [1]; in solution): did not decrease the viral titer
